IC50 data for one molecule are collected here from publication PMC8861431, “Tissue Pharmacokinetic Properties and Bystander Potential of Hypoxia-Activated Prodrug CP-506 by Agent-Based Modelling” (Frontiers in Pharmacology, 2022).

Each structure is given as a SMILES string.

By IC50 is commonly meant the concentration that gives 50% inhibition.

In this test the test system is HCT-116 WT cell line. Nature of the test: Monolayer clonogenic assay. The format is cell-based. As to conditions: Homo sapiens; HCT-116 WT monolayer; 4 h exposure, <1 ppm O2; read-out: Clonogenic IC50 under anoxia. As for the experimental part:
Cells (4.8 x 10^5 cells) were seeded with 2 ml culture medium into 6-well plates and left to attach for 2 h in a humidified 37°C incubator. Compounds were then prepared in culture medium and added in a 500 µl volume to each well. Plates were returned to a humidified 37°C incubator for the duration of the drug exposure (4 h). Aerobic and anoxic experiments were performed as described above. Plates were then removed from the anaerobic chamber and processed alongside the aerobic cultures. Cells were detached from monolayer by trypsinisation and plated at serial dilutions in 6-well plates. Cells were left to grow in a standard 37°C incubator for 10 days until the controls formed discrete colonies comprised of at least 50 cells. Colonies were visualized by staining with methylene blue (2 g/L in 50% aqueous ethanol) for 30 min. The number of colonies with at least 50 cells was manually counted to determine the plating efficiency. The surviving fraction was determined as the ratio of plating efficiency of treated cells to that of the controls.

Consider `CCN1CCN(C(=O)c2cc(N(CCBr)CCOS(C)(=O)=O)c(S(C)(=O)=O)cc2[N+](=O)[O-])CC1` [CP-506, 2-[(2-bromoethyl)-5-[(4-ethyl-1-piperazinyl)carbonyl]-2-(methylsulfonyl)-4-nitroanilino]ethyl methanesulfonate], for which the IC50 came to 7.4 ± 0.5 µM.
